Tests used:
[1] = Evaluation of coloring compound for its solubility in a styrene monomer; assay type: physicochemical; details: in a styrene monomer at 25° C.
Procedure: <Evaluation of Coloring Compound for its Solubility>
A coloring compound was tested for its solubility in a styrene monomer at a temperature of 25° C. of dissolution.
The coloring compound was judged to have sufficient solubility when the percentage by which the coloring compound dissolved in the styrene monomer was 1 mass % or more.

[2] = Evaluation of coloring compound for lightfastness (sun tester irradiation, color difference ΔE); assay type: physicochemical; details: ΔE after sun tester irradiation, 765 w/m^2, 50° C., 20 hours, on CLC color copy paper
Procedure: <Evaluation of Coloring Compound for Lightfastness>
A coloring compound was dissolved in a mixed liquid prepared by mixing tetrahydrofuran and cyclohexanone at a volume ratio of 1:1, whereby a 0.04-mol/l coloring compound solution was prepared. The coloring compound solution was filtrated through a filter (pore diameter: 0.2 μm). The coloring compound solution after the filtration was applied to CLC color copy paper (manufactured by Canon Inc.) by a bar coat method (Bar No. 3), and the resultant test paper was dried with air for one whole day and night. Next, the test paper was tested by being irradiated with light from a sun tester (XF-180CPS, manufactured by Shimadzu Corporation) at an illuminance of 765 w/m^2 and a temperature of 50° C. for an irradiation time of 20 hours. The test paper was analyzed with a spectrophotometer (SPECTROLINO, manufactured by Gretag Macbeth) before and after the irradiation test. The chromaticities (L*, a*, b*) of the test paper in an L*a*b* colorimetric system were measured before and after the irradiation test. A color difference (ΔE) was calculated from the following equation.
The coloring compound was evaluated for its lightfastness as described below. • A: ΔE is less than 15. • B: ΔE is 15 or more and less than 30. • C: ΔE is 30 or more.
The coloring compound was judged to have good lightfastness when ΔE was less than 30.

Structure (SMILES) | Lightfastness [2] | Solubility [1]
CCCCC(CC)CN(CC(CC)CCCC)C(=O)c1ccccc1/N=N/c1c(O)[nH]c(=O)c(C#N)c1C (centres unmarked) [D1] | A (ΔE is less than 15) | A (The percentage by which the coloring compound dissolves in the styrene monomer is 10 mass % or more)
CCCCC(CC)CN(CC(CC)CCCC)C(=O)c1ccccc1N=Nc1c(O)[nH]c(=O)c(C#N)c1-c1ccccc1 (centres unmarked) [D2] | A (ΔE is less than 15) | A (The percentage by which the coloring compound dissolves in the styrene monomer is 10 mass % or more)
CCCCCCN(CCCCCC)C(=O)c1ccccc1N=Nc1c(O)[nH]c(=O)c(C#N)c1C [D3] | A (ΔE is less than 15) | A (The percentage by which the coloring compound dissolves in the styrene monomer is 10 mass % or more)
CCCCCCCCCCCCN(CCCCCCCCCCCC)C(=O)c1ccccc1N=Nc1c(O)[nH]c(=O)c(C#N)c1C [D4] | A (ΔE is less than 15) | A (The percentage by which the coloring compound dissolves in the styrene monomer is 10 mass % or more)
CCCCCCCCCCCCN(CCCCCCCCCCCC)C(=O)c1cc(Cl)ccc1N=Nc1c(O)[nH]c(=O)c(C#N)c1C [D5] | B (ΔE is 15 or more and less than 30) | A (The percentage by which the coloring compound dissolves in the styrene monomer is 10 mass % or more)
CCCCc1c(N=Nc2ccc(C)cc2C(=O)OCC(CC)CCCC)c(O)[nH]c(=O)c1C#N (centres unmarked) [D6] | B (ΔE is 15 or more and less than 30) | B (The percentage by which the coloring compound dissolves in the styrene monomer is 1 mass % or more and less than 10 mass %)
CCCCC(CC)CN(CC(CC)CCCC)C(=O)c1ccccc1N=Nc1c(C)cc(=O)[nH]c1O (centres unmarked) [D7] | B (ΔE is 15 or more and less than 30) | B (The percentage by which the coloring compound dissolves in the styrene monomer is 1 mass % or more and less than 10 mass %)
CCCCCCCCc1ccc(OC(=O)c2ccccc2N=Nc2c(O)[nH]c(=O)c(C#N)c2C)cc1 [D8] | A (ΔE is less than 15) | B (The percentage by which the coloring compound dissolves in the styrene monomer is 1 mass % or more and less than 10 mass %)
CCCCc1c(N=Nc2ccc(OC)cc2C(=O)OC(c2ccccc2)c2ccccc2)c(O)[nH]c(=O)c1C#N [D10] | B (ΔE is 15 or more and less than 30) | B (The percentage by which the coloring compound dissolves in the styrene monomer is 1 mass % or more and less than 10 mass %)
Cc1c(N=Nc2ccccc2C(=O)N(Cc2ccccc2)Cc2ccccc2)c(O)[nH]c(=O)c1C#N [D11] | A (ΔE is less than 15) | B (The percentage by which the coloring compound dissolves in the styrene monomer is 1 mass % or more and less than 10 mass %)
Cc1c(N=Nc2ccccc2C(=O)N(c2ccccc2)c2ccccc2)c(O)[nH]c(=O)c1C#N [D12] | A (ΔE is less than 15) | B (The percentage by which the coloring compound dissolves in the styrene monomer is 1 mass % or more and less than 10 mass %)
CCCCC(CC)CN(CC(CC)CCCC)C(=O)c1ccccc1N=Nc1c(O)[nH]c(=O)c(C(N)=O)c1C (centres unmarked) [D14] | B (ΔE is 15 or more and less than 30) | B (The percentage by which the coloring compound dissolves in the styrene monomer is 1 mass % or more and less than 10 mass %)
CCCCc1c(N=Nc2ccccc2C(=O)NCC(CC)CCCC)c(O)[nH]c(=O)c1C#N (centres unmarked) [D15] | A (ΔE is less than 15) | B (The percentage by which the coloring compound dissolves in the styrene monomer is 1 mass % or more and less than 10 mass %)
CCCCc1c(N=Nc2ccccc2C(=O)N2CCC(CCC)CC2)c(O)[nH]c(=O)c1C#N [D16] | A (ΔE is less than 15) | B (The percentage by which the coloring compound dissolves in the styrene monomer is 1 mass % or more and less than 10 mass %)

Continued, in another order:

Lightfastness [2] | Structure (SMILES) | Solubility [1]
C (ΔE is 30 or more) | CCCCc1ccc(N=Nc2c(O)[nH]c(=O)c(C#N)c2C)cc1 [E1, reference compound] | B (The percentage by which the coloring compound dissolves in the styrene monomer is 1 mass % or more and less than 10 mass %)
C (ΔE is 30 or more) | CCCCn1c(O)c(N=Nc2ccc(Cl)cc2)c(C)c(C#N)c1=O [E2, reference compound] | B (The percentage by which the coloring compound dissolves in the styrene monomer is 1 mass % or more and less than 10 mass %)
C (ΔE is 30 or more) | CCCCC(CC)CNS(=O)(=O)c1ccc(N=Nc2c(C)c(C#N)c(=O)n(CCCC)c2O)cc1 (centres unmarked) [E3, reference compound] | A (The percentage by which the coloring compound dissolves in the styrene monomer is 10 mass % or more)
C (ΔE is 30 or more) | Cc1c(N=Nc2ccc(N(C)C)cc2)c(O)n(CCCl)c(=O)c1C#N [E4, reference compound] | B (The percentage by which the coloring compound dissolves in the styrene monomer is 1 mass % or more and less than 10 mass %)
C (ΔE is 30 or more) | CCCCn1c(O)c(N=Nc2ccc(C(=O)OC)cc2)c(C)c(C#N)c1=O [E5, reference compound] | C (The percentage by which the coloring compound dissolves in the styrene monomer is less than 1 mass %)
C (ΔE is 30 or more) | CCCCC(CC)CN(CC(CC)CCCC)C(=O)c1ccc(N=Nc2c(C)c(C#N)c(=O)n(CC)c2O)cc1 (centres unmarked) [E6, reference compound] | A (The percentage by which the coloring compound dissolves in the styrene monomer is 10 mass % or more)
C (ΔE is 30 or more) | CCCCn1c(O)c(N=Nc2cccc(C)c2)c(C)c(C#N)c1=O [E7, reference compound] | B (The percentage by which the coloring compound dissolves in the styrene monomer is 1 mass % or more and less than 10 mass %)
C (ΔE is 30 or more) | CCCCn1c(O)c(N=Nc2ccccc2[N+](=O)[O-])c(C)c(C#N)c1=O [E8, reference compound] | C (The percentage by which the coloring compound dissolves in the styrene monomer is less than 1 mass %)
A (ΔE is less than 15) | CCCCC(CC)CN(CC(CC)CCCC)C(=O)c1cccc(N=Nc2c(O)[nH]c(=O)c(C#N)c2C)c1 (centres unmarked) [E9, reference compound] | C (The percentage by which the coloring compound dissolves in the styrene monomer is less than 1 mass %)
C (ΔE is 30 or more) | CCCCC(CC)CN(CC(CC)CCCC)C(=O)c1ccc(N=Nc2c(O)[nH]c(=O)c(C#N)c2C)cc1 (centres unmarked) [E10, reference compound] | A (The percentage by which the coloring compound dissolves in the styrene monomer is 10 mass % or more)
C (ΔE is 30 or more) | CCCCC(CC)CN(CC(CC)CCCC)C(=O)c1ccccc1N=Nc1c(C)c(C#N)c(=O)n(CC)c1O (centres unmarked) [E11, reference compound] | A (The percentage by which the coloring compound dissolves in the styrene monomer is 10 mass % or more)
